The values that follow come from patent publication US4202898A, “Method of treating anxiety and depression” (priority 1978, dated 1980).

Series [1] in a line: 4 plates test (percentage of desinibition observed in the mouse). It is filed as in vivo. The conditions noted are these: for change in vivo at 1 mg/kg / change in vivo at 3 mg/kg / change in vivo at 10 mg/kg / change in vivo at 30 mg/kg: po, 1 h; for change in vivo at 1 mg/kg: read-out: percentage of desinibition (ACTIVITY, 1 mg/kg p.o.); for change in vivo at 3 mg/kg: read-out: percentage of desinibition (ACTIVITY, 3 mg/kg p.o.); for change in vivo at 10 mg/kg: read-out: percentage of desinibition (ACTIVITY, 10 mg/kg p.o.); for change in vivo at 30 mg/kg: 30 mg/kg p.o. As for the experimental part:
This activity has been tested by the 4 plates test (Aron C. These de Medecine--Paris 1970; Boissier JR--Simon P. and Aron C., A new method for rapid screening of minor tranquillizers in mice, Europ. J. Pharmacol. 1968, 4, 145-151). The substances are administered in several doses (0.3, 1.0, 3.0, 10 and 30 mg/kg) per os, 60 minutes before the test.
The results, which give the percentage of desinibition observed in the mouse, are shown as Examples III-XVIII. At the same doses, the greater the percentage the higher the activity of the piperazine. The results for two known anxiolytic agents are set forth in Examples XIX and XX.

A short description of a further series: LD 50 toxicity, oral. The settings on record: in vivo, p.o., tested as hydrochlorides.
[2] abbreviates: mouse, 60 minutes before the test.
Setting [3] is: mouse, 1 mg/kg p.o., 60 minutes before the test.
Setting [4] is: mouse, 3 mg/kg p.o., 60 minutes before the test.
[5] abbreviates: mouse, 10 mg/kg p.o., 60 minutes before the test.

As a reminder, the LD50 is the dose at which mortality reaches 50%.

The structures appear in SMILES notation. Read-outs that look alike come from different tables or passages of the source.

As to `OCCN1CCN(c2cccc(SC(F)(F)F)c2)CC1` [Example 3, [4-(3'-trifluoromethylthiophenyl)-piperazino]-ethanol], in series [1] (setting [2]), the “percentage of desinibition (ACTIVITY, 0.3 mg/kg p.o.)” value was “+118%” and the change in vivo at 30 mg/kg is 248%. Besides, in series [1] (setting [3]), the change in vivo at 1 mg/kg came to 190%. Further, in series [1] (setting [4]), the change in vivo at 3 mg/kg came out at 230%. Moreover, in series [1] (setting [5]), the change in vivo at 10 mg/kg was 335%. For the same molecule, the LD50 in “LD 50 toxicity, oral” came to 500 mg/kg.

Turning to `OCCN1CCN(c2cccc(C(F)(F)F)c2)CC1` [Example 4], the change in vivo at 10 mg/kg in series [1] (setting [5]) worked out at 174%. The same molecule displayed a change in vivo at 30 mg/kg in series [1] (setting [2]) of 226%. The median lethal dose (LD50) in “LD 50 toxicity, oral” stood at 740 mg/kg.

On to `OCCN1CCN(c2cccc(OC(F)(F)F)c2)CC1` [Example 5], for which the change in vivo at 1 mg/kg in series [1] (setting [3]) is 8%. In addition, the change in vivo at 3 mg/kg in series [1] (setting [4]) is 9%. Also, the change in vivo at 10 mg/kg in series [1] (setting [5]) was 14%. Further, in series [1] (setting [2]), the change in vivo at 30 mg/kg was 88%. Besides, the 50% lethal dose (LD50) in “LD 50 toxicity, oral” was 575 mg/kg.

As to `OCCN1CCN(c2cccc(Cl)c2)CC1` [Example 6], the change in vivo at 1 mg/kg in series [1] (setting [3]) is 23%. Moreover, the change in vivo at 3 mg/kg in series [1] (setting [4]) amounted to 50%. Further, the change in vivo at 10 mg/kg in series [1] (setting [5]) amounted to 54%. This molecule yielded an LD50 in “LD 50 toxicity, oral” of 750 mg/kg.

As for `OCCN1CCN(c2ccccc2)CC1` [Example 7], in series [1] (setting [3]), the change in vivo at 1 mg/kg was 39%. Further, the change in vivo at 3 mg/kg in series [1] (setting [4]) was determined as 2%. This molecule also gave an LD50 in the series “LD 50 toxicity, oral” of 525 mg/kg.

On to `CC(=O)OCCN1CCN(c2cccc(SC(F)(F)F)c2)CC1` [Example 8, (4-m-trifluoromethylthiophenyl-piperazino)-ethyl acetate], for which, in series [1] (setting [2]), the “percentage of desinibition (ACTIVITY, 0.3 mg/kg p.o.)” value is on record as “+27%” and the change in vivo at 30 mg/kg is 154%. Moreover, in series [1] (setting [3]), the change in vivo at 1 mg/kg is 88%. Further, the change in vivo at 3 mg/kg in series [1] (setting [4]) was 191%. In series [1] (setting [5]), the change in vivo at 10 mg/kg turned out to be 312%. In “LD 50 toxicity, oral”, this molecule displayed a median lethal dose (LD50) of 510 mg/kg.

In the case of `CC(=O)OCCN1CCN(c2cccc(C(F)(F)F)c2)CC1` [Example 9], the change in vivo at 1 mg/kg in series [1] (setting [3]) was found to be 24%. In series [1] (setting [4]), the change in vivo at 3 mg/kg worked out at 49%. Besides, the change in vivo at 10 mg/kg in series [1] (setting [5]) is 220%. Moreover, the change in vivo at 30 mg/kg in series [1] (setting [2]) was found to be 156%. For the same molecule, the LD50 in the series “LD 50 toxicity, oral” was determined as 925 mg/kg.

Turning to `Nc1ccccc1C(=O)OCCN1CCN(c2cccc(C(F)(F)F)c2)CC1` [Example 11], the change in vivo at 1 mg/kg in series [1] (setting [3]) turned out to be 35%. Further, the change in vivo at 3 mg/kg in series [1] (setting [4]) turned out to be 63%. For the same molecule, in series [1] (setting [5]), the change in vivo at 10 mg/kg is 182%. Also, the change in vivo at 30 mg/kg in series [1] (setting [2]) was found to be 336%. In addition, the 50% lethal dose (LD50) in “LD 50 toxicity, oral” was found to be 3000 mg/kg.

Turning to `COc1ccc(Cl)cc1C(=O)OCCN1CCN(c2cccc(C(F)(F)F)c2)CC1` [Example 12], the change in vivo at 10 mg/kg in series [1] (setting [5]) stood at 65%. In addition, in “LD 50 toxicity, oral”, the LD50 worked out at 1800 mg/kg.

Turning to `CNC(=O)OCCN1CCN(c2cccc(SC(F)(F)F)c2)CC1` [Example 13], in series [1] (Mus musculus), the change in vivo at 3 mg/kg amounted to 49% and the change in vivo at 10 mg/kg turned out to be 152%.

With `CN(C)C(=O)OCCN1CCN(c2cccc(SC(F)(F)F)c2)CC1` [Example 14], in series [1] (Mus musculus), the change in vivo at 1 mg/kg was 2% and the change in vivo at 10 mg/kg stood at 3%.

Take `CCCCNC(=O)OCCN1CCN(c2cccc(SC(F)(F)F)c2)CC1` [Example 15]: the change in vivo at 1 mg/kg in series [1] (setting [3]) worked out at 3%. The change in vivo at 3 mg/kg in series [1] (setting [4]) came out at 109%. In addition, the change in vivo at 10 mg/kg in series [1] (setting [5]) was 64%.

As to `O=C(Nc1ccccc1)OCCN1CCN(c2cccc(C(F)(F)F)c2)CC1` [Example 17], in series [1] (setting [5]), the change in vivo at 10 mg/kg turned out to be 9%. Also, the change in vivo at 30 mg/kg in series [1] (setting [2]) is 30%.

With `O=C(Nc1ccccc1)OCCN1CCN(c2cccc(SC(F)(F)F)c2)CC1` [Example 18], in series [1] (setting [2]), the “percentage of desinibition (ACTIVITY, 0.3 mg/kg p.o.)” value is recorded as “+15%” and the change in vivo at 30 mg/kg is 532%. In series [1] (setting [3]), the change in vivo at 1 mg/kg turned out to be 23%. Moreover, in series [1] (setting [4]), the change in vivo at 3 mg/kg turned out to be 63%. Also, the change in vivo at 10 mg/kg in series [1] (setting [5]) stood at 304%.

For `CC(C)(C)C(=O)OCCN1CCN(c2cccc(SC(F)(F)F)c2)CC1` [Example 21], the change in vivo at 1 mg/kg in series [1] (setting [3]) was 73%. For the same molecule, the change in vivo at 3 mg/kg in series [1] (setting [4]) worked out at 122%. The change in vivo at 10 mg/kg in series [1] (setting [5]) came out at 196%.

On to `CNC1=Nc2ccc(Cl)cc2C(c2ccccc2)=[N+]([O-])C1` [chlordiazepozide, reference compound], for which the change in vivo at 1 mg/kg in series [1] (setting [3]) was found to be 43%. In addition, the change in vivo at 3 mg/kg in series [1] (setting [4]) is 86%. In addition, the change in vivo at 10 mg/kg in series [1] (setting [5]) worked out at 24%.

Consider `CCCC(C)(COC(N)=O)COC(N)=O` [meprobamate, reference compound], for which the change in vivo at 3 mg/kg in series [1] (setting [4]) turned out to be 53%. Also, in series [1] (setting [5]), the change in vivo at 10 mg/kg is 38%. The molecule further returned a change in vivo at 30 mg/kg in series [1] (setting [2]) of 142%.
